# Source: patent US20250230165A1, “HETEROCYCLIC COMPOUNDS FOR USE IN THE TREATMENT OF CANCER” (ARTIOS PHARMA LIMITED, priority 2021, published 2025)
# Biological target: T1, Human Polθ polymerase domain (aa1820-2590) (Homo sapiens, UniProt O75417)
# T1 construct: Human Polθ polymerase domain (aa1820-2590) was expressed in E. coli; made in house; host or cells: E. coli
# T1 sequence (O75417 1820-2590): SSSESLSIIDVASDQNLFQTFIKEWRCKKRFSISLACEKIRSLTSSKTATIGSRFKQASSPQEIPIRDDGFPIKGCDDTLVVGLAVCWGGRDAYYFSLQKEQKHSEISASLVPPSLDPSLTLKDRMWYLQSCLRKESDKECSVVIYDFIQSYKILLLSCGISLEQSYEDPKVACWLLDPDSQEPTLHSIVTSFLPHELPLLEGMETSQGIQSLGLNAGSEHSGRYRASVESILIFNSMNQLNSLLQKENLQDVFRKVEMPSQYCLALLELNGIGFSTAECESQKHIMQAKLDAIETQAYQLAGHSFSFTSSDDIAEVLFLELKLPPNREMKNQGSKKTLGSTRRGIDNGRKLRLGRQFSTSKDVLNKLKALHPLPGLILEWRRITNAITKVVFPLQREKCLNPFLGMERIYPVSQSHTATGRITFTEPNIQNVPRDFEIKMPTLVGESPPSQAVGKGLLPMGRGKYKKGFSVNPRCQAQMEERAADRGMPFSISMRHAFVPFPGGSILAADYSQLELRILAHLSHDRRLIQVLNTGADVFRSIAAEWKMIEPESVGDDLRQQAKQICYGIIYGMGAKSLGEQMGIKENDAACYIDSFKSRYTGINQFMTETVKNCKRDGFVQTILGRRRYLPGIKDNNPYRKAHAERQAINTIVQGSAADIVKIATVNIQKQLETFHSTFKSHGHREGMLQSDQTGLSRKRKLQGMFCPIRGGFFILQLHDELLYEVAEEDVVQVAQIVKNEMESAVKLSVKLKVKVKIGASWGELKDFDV
# Test: Polθ Polymerase Domain Kinact/KI Assay (PicoGreen)
# Type: biochemical
# Details: 0.8 nM Polθ, 100 nM DNA substrate, kobs vs [I] fit for 2-step covalent inhibitor
# Procedure: Polθ Polymerase Domain Kinact/KI Assay
# A PicoGreen assay was used to measure the Kinact and KI values of covalent compounds that inhibit the activity of Polθ in vitro.
# Human Polθ polymerase domain (aa1820-2590) was expressed in E. coli, purified, aliquoted and stored at −80° C. until required. Polθ substrate was generated from a 1.2:1 mix of DNA II Short to DNA II Long to give a final concentration of […] substrate in annealing buffer (20 mM Tris pH 7.5, 50 mM NaCl). The substrate was heated in […] aliquots to 95° C. in a heating block for 5 min before the heating block switched off, the reaction left to cool to rt and stored at −20° C. until required.
# Assay measurements were performed with 1× buffer comprising 25 mM Tris pH 7.5, 12.5 mM NaCl, […], 5% (v/v) glycerol, 0.01% v/v Triton x-100, 0.1 mg/ml BSA, 1 mM DTT. Test compounds were prepared by dilution in 100% DMSO to give a 12 μM intermediate stock of each (100× final top concentration). 100 nL of 23×1:1.5-fold serial dilutions and a DMSO only control were dispensed using the Tecan dispenser into Greiner 384 well black low volume plates (product code 784076). DMSO concentration was maintained at 1% of the final assay volume by back filling with DMSO.
# 2× Working stock of substrate (200 nM of DNA substrate and […] dNTPs) and enzyme ([…] PolΘ) were made up in assay buffer. 5 μL/well of both enzyme and substrate 2× solutions were dispensed using a Tempest dispenser (Formulatrix) into assay plates that had been pre-dispensed with compound to give a final assay concentration of 100 nM DNA substrate, […] dNTPs and 0.8 nM Polθ. To stop the reaction, […] of a solution containing 25 mM Tris-HCl pH 7.5 and 20 mM EDTA was added at […] (t=0, 2.5, 5, 7.5, 10, 12.5, 15, 20, 25, 30, 35, 40, 45, 50, 55 and 60 min) using the Tempest's time delay function. The plates were covered during the time course to prevent evaporation. After completing the assay, 5 μL of detection reagent (25 mM Tris-HCl pH 7.5 and 2.5% (v/v) PicoGreen) was dispensed into the wells using a Tempest liquid handler (Formulatrix) and plates subsequently read on the CLARIOstar Plus (BMG Labtech) using the default optical settings for fluorescein and the auto gain/focus settings.
# All data analysis was carried out using GraphPad Prism V.8 (GraphPad Software Inc, San Diego, CA) Time course data for each inhibitor concentration was fitted to equation 1 to determine kobs values.^1 Any time points where the control (DMSO alone) reaction was no longer linear were excluded from the analysis. 1) Evaluation of Enzyme Inhibitors in Drug Discovery (Ch9), R. A Copeland, Wiley, 2nd Edition 2013.
# A secondary plot of kobs vs [I] is used to determine the Kinact and KI parameters (for a 2-step covalent inhibitor) by fitting to equation 2.^1
row,Compound,Kinact/Kl [M⁻¹ s⁻¹]
1,"Cc1cc(C(F)(F)F)cc(N2C(=O)C[C@@H]3CN(Cc4cc(F)c(NC(=O)/C=C/CN(C)C)c(F)c4)c4c(Cl)cccc4N(C)C(=O)[C@H]32)n1 [Example 309, (E)-N-(4-(((3aR,11aS)-6-chloro-10-methyl-1-(6-methyl-4-(trifluoromethyl)pyridin-2-yl)-2,11-dioxo-1,2,3,3a,4,10,11,11a-octahydro-5H-benzo[b]pyrrolo[2,3-f][1,4]diazocin-5-yl)methyl)-2,6-difluorophenyl)-4-(dimethylamino)but-2-enamide]",1.02e+06
2,"Cc1cc(C(F)(F)F)cc(N2C(=O)C[C@@H]3CN(CCCOC4CN(C(=O)C5=CCCN(C)C5)C4)c4c(C)cccc4N(C)C(=O)[C@H]32)n1 [Example 196, (3aR,11aS)-6,10-dimethyl-5-(3-((1-(1-methyl-1,2,5,6-tetrahydropyridine-3-carbonyl)azeti-din-3-yl)oxy)prop-yl)-1-(6-methyl-4-(trifluoromethyl)-pyridin-2-yl)-1,3a,4,5,10,11a-hexahydro-2H-benzo[b]pyrrolo [2,3-f][1,4]diazo-cine-2,11(3H)-dione]",2.06e+06
3,"C=CC(=O)N1CC[C@H]1c1nnc(CN2C[C@H]3CC(=O)N(c4cc(C(F)(F)F)cc(C)n4)[C@@H]3C(=O)N(C)c3cccc(C)c32)o1 [Example 275, (3aR,11aS)-5-((5-((S)-1-acryloylazetidin-2-yl)-1,3,4-oxadiazol-2-yl)methyl)-6,10-dimethyl-1-(6-methyl-4-(trifluoromethyl)pyridin-2-yl)-1,3a,4,5,10,11a-hexahydro-2H-benzo[b]pyrrolo[2,3-f][1,4]diazocine-2,11(3H)-dione]",800000
4,"C=C(CN(C)C)C(=O)NCc1ccc(CN2C[C@H]3CC(=O)N(c4cc(C(F)(F)F)cc(C)n4)[C@@H]3C(=O)N(C)c3cccc(C)c32)cc1 [Example 189, N-(4-(((3aR,11aS)-6,10-dimethyl-1-(6-methyl-4-(trifluoromethyl)-pyridin-2-yl)-2,11-dioxo-1,2,3,3a,4, 10,11,11a-octa-hydro-5H-benzo [b]pyrrolo[2,3-f] [1,4]diazocin-5-yl)-methyl)benzyl)-2-((dimethylamino)-methyl)acrylamide]",3.35e+06
5,"C=C(CN(C)C)C(=O)N1CCc2cc(CN3C[C@H]4CC(=O)N(c5cc(C(F)(F)F)cc(C)n5)[C@@H]4C(=O)N(C)c4cccc(F)c43)ccc2C1 [Example 154, (3aR, 11aS)-5-((2-(2-((dimethylamino)methyl)acryloyl)-1,2,3,4-tetrahydroisoquinolin-6-yl)methyl)-6-fluoro-10-methyl-1-(6-methyl-4-(trifluoromethyl)pyridin-2-yl)-1,3a,4,5,10,11a-hexahydro-2H-benzo[b]pyrrolo[2,3-f][1,4]diazocine-2,11(3H)-dione]",2.3e+06
6,"C=CC(=O)N1CC(c2nnc(CN3C[C@H]4CC(=O)N(c5cc(C(F)(F)F)cc(C)n5)[C@@H]4C(=O)N(C)c4cccc(F)c43)o2)C1 [Example 103, (3aR,11aS)-5-((5-(1-acryloylazetidin-3-yl)-1,3,4-oxadiazol-2-yl)methyl)-6-fluoro-10-methyl-1-(6-methyl-4-(trifluoromethyl)pyridin-2-yl)-1,3a,4,5,10,11a-hexahydro-2H-benzo[b]pyrrolo[2,3-f][1,4]diazocine-2,11(3H)-dione]",1.6e+06

# More lines, now with the values ahead:
row,Kinact/Kl [M⁻¹ s⁻¹],Compound
1,2.26e+06,"C=CC(=O)N1Cc2ncc(CN3C[C@H]4CC(=O)N(c5cc(C(F)(F)F)cc(C)n5)[C@@H]4C(=O)N(C)c4cccc(C)c43)nc2C1 [Example 228, (3aR,11aS)-5-((6-acryloyl-6,7-dihydro-5H-pyrrolo[3,4-b]pyrazin-2-yl)methyl)-6,10-dimethyl-1-(6-methyl-4-(trifluoromethyl)pyridin-2-yl)-1,3a,4,5,10,11a-hexahydro-2H-benzo[b]pyrrolo[2,3-f][1,4]diazocine-2,11(3H)-dione]"
2,350000,"C=CC(=O)N1CC(N2CCN(CCN3C[C@H]4CC(=O)N(c5cc(C(F)(F)F)cc(C)n5)[C@@H]4C(=O)N(C)c4cccc(F)c43)C[C@@H]2CF)C1 [Example 28, (3aR,11aS)-5-(2-((R)-4-(1-acryloylazetidin-3-yl)-3-(fluoromethyl)piperazin-1-yl)ethyl)-6-fluoro-10-methyl-1-(6-methyl-4-(trifluoromethyl)pyridin-2-yl)-1,3a,4,5,10,11a-hexahydro-2H-benzo[b]pyrrolo[2,3-f][1,4]diazocine-2,11(3H)-dione]"
3,660000,"C=CC(=O)N1CC(c2cccc(CN3C[C@H]4CC(=O)N(c5cc(C(F)(F)F)cc(C)n5)[C@@H]4C(=O)N(C)c4cccc(F)c43)n2)C1 [Example 128, (3aR,11aS)-5-((6-(1-acryloylazetidin-3-yl)pyridin-2-yl)methyl)-6-fluoro-10-methyl-1-(6-methyl-4-(trifluoromethyl)pyridin-2-yl)-1,3a,4,5,10,11a-hexahydro-2H-benzo[b]pyrrolo[2,3-f][1,4]diazocine-2,11(3H)-dione]"
4,1.17e+06,"C=CC(=O)N1CCN2C(=O)CN(CCN3C[C@H]4CC(=O)N(c5cc(C(F)(F)F)cc(C)n5)[C@@H]4C(=O)N(C)c4cccc(F)c43)CC2C1 (mixture of isomers) [Example 116a, (3aR,11aS)-5-(2-((R/S)-8-acryloyl-4-oxooctahydro-2H-pyrazino[1,2-a]pyrazin-2-yl)ethyl)-6-fluoro-10-methyl-1-(6-methyl-4-(trifluoromethyl)pyridin-2-yl)-1,3a,4,5,10,11a-hexahydro-2H-benzo[b]pyrrolo[2,3-f][1,4]diazocine-2,11(3H)-dione]"
5,3.95e+06,"C=C(CN(C)C)C(=O)N1CC(OCCCN2C[C@H]3CC(=O)N(c4cc(C(F)(F)F)cc(C)n4)[C@@H]3C(=O)N(C)c3cccc(Cl)c32)C1 [Example 156, (3aR,11aS)-6-chloro-5-(3-((1-(2-((dimethylamino)methyl)acryloyl)azetidin-3-yl)oxy)propyl)-10-methyl-1-(6-methyl-4-(trifluoromethyl)pyridin-2-yl)-1,3a,4,5,10,11a-hexahydro-2H-benzo[b]pyrrolo[2,3- ][1,4]diazocine-2,11(3H)-dione]"
6,1.74e+06,"C=CC(=O)N1Cc2nc(CN3C[C@H]4CC(=O)N(c5cc(C(F)(F)F)cc(C)n5)[C@@H]4C(=O)N(C)c4cccc(C)c43)n(CC)c2C1 [Example 314, (3aR,11aS)-5-((5-acryloyl-1-ethyl-1,4,5,6-tetrahydro-pyrrolo[3,4-d]imid-azol-2-yl)methyl)-6,10-dimethyl-1-(6-methyl-4-(trifluoro-methyl)pyridin-2-yl)-1,3a,4,5,10,11a-hexahydro-2H-benzo[b]pyrrolo [2,3-f][1,4]diazo-cine-2,11(3H)-dione]"
